Earlier results, collected in patent US8911790B2, “Solid composition containing a hypothiocyanite salt” (Alaxia SAS, priority 2011, dated 2014).

Settings: hypothiocyanite ion, instability of the species

## N#CSO [hypothiocyanite ion, hypothiocyanite]
  half-life: less than 24 hours
